According to PubChem BioAssay (NCI):
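Cultured in 96-well plates, cells were exposed to test compound for 48 hours across five concentrations. Here, GI50 denotes the concentration required for 50% inhibition of growth. TGI is the concentration that stops growth completely.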

Assays:
Assay in all cases: growth of human tumour cells (NCI), 48 h; in the data active means GI50 below about 0.43 µM; inactive means the rest
HCT-116 colon = system: HCT-116 colon
BT-549 breast = system: BT-549 breast
RPMI-8226 leukemia = system: RPMI-8226 leukemia
786-0 renal = system: 786-0 renal
A549 NSCLC = system: A549 NSCLC
RXF 393 renal = system: RXF 393 renal
OVCAR-3 ovarian = system: OVCAR-3 ovarian
OVCAR-5 ovarian = system: OVCAR-5 ovarian
HS 578T breast = system: HS 578T breast
HOP-62 NSCLC = system: HOP-62 NSCLC
SN12C renal = system: SN12C renal
PC-3 prostate = system: PC-3 prostate
NCI-H226 lung = system: NCI-H226 lung
HCT-15 colon = system: HCT-15 colon
MCF7 breast = system: MCF7 breast
CAKI-1 renal = system: CAKI-1 renal
ACHN renal = system: ACHN renal
SF-539 CNS = system: SF-539 CNS
IGROV1 ovarian = system: IGROV1 ovarian
TK-10 renal = system: TK-10 renal
NCI-H460 lung = system: NCI-H460 lung
HL-60(TB) leukemia = system: HL-60(TB) leukemia
SW-620 colon = system: SW-620 colon
COLO 205 colon = system: COLO 205 colon
MDA-MB-435 = system: MDA-MB-435
DU-145 prostate = system: DU-145 prostate
SK-MEL-28 melanoma = system: SK-MEL-28 melanoma
UACC-257 melanoma = system: UACC-257 melanoma
MDA-N = system: MDA-N
A498 renal = system: A498 renal
HCC-2998 colon = system: HCC-2998 colon
U251 CNS = system: U251 CNS
SR leukemia = system: SR leukemia
NCI-H522 lung = system: NCI-H522 lung
SNB-19 CNS = system: SNB-19 CNS
KM12 colon = system: KM12 colon
K-562 leukemia = system: K-562 leukemia
SF-295 CNS = system: SF-295 CNS
NCI/ADR-RES ovarian = system: NCI/ADR-RES ovarian
LOX IMVI melanoma = system: LOX IMVI melanoma
EKVX NSCLC = system: EKVX NSCLC
HT29 colon = system: HT29 colon
CCRF-CEM leukemia = system: CCRF-CEM leukemia
OVCAR-8 ovarian = system: OVCAR-8 ovarian
NCI-H23 lung = system: NCI-H23 lung
MDA-MB-231 breast = system: MDA-MB-231 breast
MALME-3M melanoma = system: MALME-3M melanoma
SK-MEL-5 melanoma = system: SK-MEL-5 melanoma
SF-268 CNS = system: SF-268 CNS
UO-31 renal = system: UO-31 renal
UACC-62 melanoma = system: UACC-62 melanoma
MOLT-4 leukemia = system: MOLT-4 leukemia
SK-MEL-2 melanoma = system: SK-MEL-2 melanoma
M14 melanoma = system: M14 melanoma
OVCAR-4 ovarian = system: OVCAR-4 ovarian
T-47D breast = system: T-47D breast
HOP-92 NSCLC = system: HOP-92 NSCLC
SK-OV-3 ovarian = system: SK-OV-3 ovarian
SNB-75 CNS = system: SNB-75 CNS

O=C(O)C(Cc1ccc(O)cn1)NC(=O)C(F)(F)F (stereo not drawn)
> 100000 nM: TGI (HCT-116 colon) | TGI (BT-549 breast) | TGI (RPMI-8226 leukemia) | TGI (786-0 renal) | TGI (A549 NSCLC) | TGI (RXF 393 renal) | TGI (OVCAR-3 ovarian) | TGI (OVCAR-5 ovarian) | TGI (HS 578T breast) | TGI (HOP-62 NSCLC) | TGI (SN12C renal) | TGI (PC-3 prostate) | TGI (NCI-H226 lung) | TGI (HCT-15 colon) | TGI (MCF7 breast) | TGI (CAKI-1 renal) | TGI (ACHN renal) | TGI (SF-539 CNS) | TGI (IGROV1 ovarian) | TGI (TK-10 renal) | TGI (NCI-H460 lung) | TGI (HL-60(TB) leukemia) | TGI (SW-620 colon) | TGI (COLO 205 colon) | TGI (MDA-MB-435) | TGI (DU-145 prostate) | TGI (SK-MEL-28 melanoma) | TGI (UACC-257 melanoma) | TGI (MDA-N) | TGI (A498 renal) | TGI (HCC-2998 colon) | TGI (U251 CNS) | TGI (SR leukemia) | TGI (NCI-H522 lung) | TGI (SNB-19 CNS) | TGI (KM12 colon) | TGI (K-562 leukemia) | TGI (SF-295 CNS) | TGI (NCI/ADR-RES ovarian) | TGI (LOX IMVI melanoma) | TGI (EKVX NSCLC) | TGI (HT29 colon) | TGI (CCRF-CEM leukemia) | TGI (OVCAR-8 ovarian) | TGI (NCI-H23 lung) | TGI (MDA-MB-231 breast) | TGI (MALME-3M melanoma) | TGI (SK-MEL-5 melanoma) | TGI (SF-268 CNS) | TGI (UO-31 renal)

C[C@H]1CCC/C=C/[C@@H]2C[C@H](O)C[C@H]2[C@H](O)[C@H](S(=O)c2ccc(O)cc2)CC(=O)O1 (stereo partly drawn)
70.9 nM: TGI (MALME-3M melanoma)
70.3 nM: TGI (NCI-H460 lung)
75.8 nM: TGI (NCI/ADR-RES ovarian)
670 nM: TGI (T-47D breast)
489 nM: TGI (SN12C renal)
3340 nM: TGI (NCI-H522 lung)
95.1 nM: TGI (HCC-2998 colon)
54.4 nM: TGI (COLO 205 colon)
519 nM: TGI (UO-31 renal)
121 nM: TGI (SK-MEL-5 melanoma)
146 nM: TGI (NCI-H226 lung)
> 77400 nM: TGI (U251 CNS)
> 36900 nM: TGI (EKVX NSCLC)
> 65600 nM: TGI (HOP-62 NSCLC)
active: GI50 (HCT-116 colon) 25.6 nM | GI50 (BT-549 breast) 47.2 nM | GI50 (RPMI-8226 leukemia) 92.2 nM | GI50 (786-0 renal) 25.1 nM | GI50 (UACC-62 melanoma) 34.9 nM | GI50 (A549 NSCLC) 42.2 nM | GI50 (RXF 393 renal) < 10.6 nM | GI50 (OVCAR-3 ovarian) 21 nM | GI50 (OVCAR-5 ovarian) 61.3 nM | GI50 (HS 578T breast) 72.6 nM | GI50 (MOLT-4 leukemia) < 21.2 nM | GI50 (HOP-62 NSCLC) 85.5 nM | GI50 (SN12C renal) 49.7 nM | GI50 (PC-3 prostate) 34.3 nM | GI50 (NCI-H226 lung) 34.4 nM | GI50 (SK-MEL-2 melanoma) 48.5 nM | GI50 (HCT-15 colon) 44.3 nM | GI50 (MCF7 breast) 32.3 nM | GI50 (CAKI-1 renal) 114 nM | GI50 (M14 melanoma) 33 nM | GI50 (ACHN renal) 65.4 nM | GI50 (SF-539 CNS) < 15.7 nM | GI50 (IGROV1 ovarian) 147 nM | GI50 (TK-10 renal) 39.2 nM | GI50 (NCI-H460 lung) 16.8 nM | GI50 (HL-60(TB) leukemia) 33.8 nM | GI50 (SW-620 colon) 50.6 nM | GI50 (OVCAR-4 ovarian) 23.1 nM | GI50 (T-47D breast) 200 nM | GI50 (COLO 205 colon) 18.3 nM | GI50 (MDA-MB-435) 41.7 nM | GI50 (SK-MEL-28 melanoma) 31.6 nM | GI50 (UACC-257 melanoma) 22.2 nM | GI50 (MDA-N) 40.9 nM | GI50 (A498 renal) 30.7 nM | GI50 (HOP-92 NSCLC) 52.9 nM | GI50 (HCC-2998 colon) 27.8 nM | GI50 (U251 CNS) 40.3 nM | GI50 (NCI-H522 lung) 141 nM | GI50 (SK-OV-3 ovarian) < 20.5 nM | GI50 (SNB-19 CNS) 187 nM | GI50 (KM12 colon) < 14.6 nM | GI50 (K-562 leukemia) 99.4 nM | GI50 (SF-295 CNS) 69.8 nM | GI50 (NCI/ADR-RES ovarian) 17.4 nM | GI50 (LOX IMVI melanoma) 20.8 nM | GI50 (EKVX NSCLC) 82.4 nM | GI50 (CCRF-CEM leukemia) 48 nM | GI50 (OVCAR-8 ovarian) < 16.7 nM | GI50 (NCI-H23 lung) 27.3 nM | GI50 (MDA-MB-231 breast) 24.5 nM | GI50 (MALME-3M melanoma) 20.2 nM | GI50 (SNB-75 CNS) < 18 nM | GI50 (UO-31 renal) 20.5 nM
63.3 nM: TGI (HCT-116 colon)
2520 nM: TGI (RPMI-8226 leukemia)
1020 nM: TGI (OVCAR-3 ovarian)
143 nM: TGI (NCI-H23 lung)
238 nM: TGI (OVCAR-8 ovarian)
139 nM: TGI (HL-60(TB) leukemia)
61 nM: TGI (RXF 393 renal)
53.3 nM: TGI (LOX IMVI melanoma) | TGI (MDA-MB-231 breast)
71.6 nM: TGI (A498 renal)
2180 nM: TGI (TK-10 renal)
410 nM: TGI (ACHN renal)
> 36400 nM: TGI (SF-539 CNS)
79.3 nM: TGI (786-0 renal)
978 nM: TGI (OVCAR-4 ovarian)
> 100000 nM: TGI (BT-549 breast) | TGI (UACC-62 melanoma) | TGI (A549 NSCLC) | TGI (HS 578T breast) | TGI (M14 melanoma) | TGI (SW-620 colon) | TGI (SK-MEL-28 melanoma) | TGI (HOP-92 NSCLC) | TGI (SNB-19 CNS) | TGI (K-562 leukemia) | TGI (SF-295 CNS) | TGI (SNB-75 CNS) | TGI (SF-268 CNS)
1690 nM: TGI (HCT-15 colon)
504 nM: TGI (SK-MEL-2 melanoma)

Cn1c(=O)n(-c2c3ccccc3c(Cl)c3ccccc23)n(C(C)(C)C)c1=O
43900 nM: TGI (SNB-75 CNS)
> 100000 nM: TGI (HCT-116 colon) | TGI (BT-549 breast) | TGI (786-0 renal) | TGI (UACC-62 melanoma) | TGI (A549 NSCLC) | TGI (OVCAR-3 ovarian) | TGI (OVCAR-5 ovarian) | TGI (HS 578T breast) | TGI (MOLT-4 leukemia) | TGI (HOP-62 NSCLC) | TGI (SN12C renal) | TGI (PC-3 prostate) | TGI (NCI-H226 lung) | TGI (SK-MEL-2 melanoma) | TGI (HCT-15 colon) | TGI (MCF7 breast) | TGI (CAKI-1 renal) | TGI (M14 melanoma) | TGI (ACHN renal) | TGI (SF-539 CNS) | TGI (IGROV1 ovarian) | TGI (TK-10 renal) | TGI (NCI-H460 lung) | TGI (HL-60(TB) leukemia) | TGI (SW-620 colon) | TGI (T-47D breast) | TGI (COLO 205 colon) | TGI (MDA-MB-435) | TGI (DU-145 prostate) | TGI (SK-MEL-28 melanoma) | TGI (UACC-257 melanoma) | TGI (MDA-N) | TGI (A498 renal) | TGI (HOP-92 NSCLC) | TGI (HCC-2998 colon) | TGI (U251 CNS) | TGI (NCI-H522 lung) | TGI (SK-OV-3 ovarian) | TGI (SNB-19 CNS) | TGI (KM12 colon) | TGI (K-562 leukemia) | TGI (SF-295 CNS) | TGI (NCI/ADR-RES ovarian) | TGI (LOX IMVI melanoma) | TGI (EKVX NSCLC) | TGI (HT29 colon) | TGI (CCRF-CEM leukemia) | TGI (OVCAR-8 ovarian) | TGI (NCI-H23 lung) | TGI (MDA-MB-231 breast) | TGI (MALME-3M melanoma) | TGI (SK-MEL-5 melanoma) | TGI (SF-268 CNS) | TGI (UO-31 renal)
